# Experimental data from the supplement of paper PMC10307832.
# Columns and labels:
# Experiment in all cases: relative viability (nuclei count vs DMSO), 5 days (fraction); higher = more cells survive
# [1] = compound: Cn1cc(-c2cnn3c(N)c(Br)c([C@@H]4CCCNC4)nc23)cn1 + CS(=O)(=O)N1CCN(Cc2cc3nc(-c4cccc5[nH]ncc45)nc(N4CCOCC4)c3s2)CC1 [Pictilisib] (partner 1 µM)
# Outline: (§1)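 Lung cancer cell lines were seeded in 1536-well plates and dosed by pin tool the next day, with either a single drug or a fixed anchor-drug dose combined with five library-drug doses (not always all listed) spaced in √10 steps. Five days later, one step fixed the cells and stained their nuclei (final 0.05% Triton X-100, 1% formaldehyde, 1 ug/ml Hoechst), and nuclei were counted on 4× images. Relative viability is the nuclei count in treated wells divided by the count in vehicle wells, and each value is the median of duplicate plates.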
# [2] = compound: Cn1cc(-c2cnn3c(N)c(Br)c([C@@H]4CCCNC4)nc23)cn1 + Cc1nc(NC(=O)N2CCC[C@H]2C(N)=O)sc1-c1ccnc(C(C)(C)C(F)(F)F)c1 [Alpelisib] (partner 2 µM)
# Outline: as §1
# [3] = compound: Cn1cc(-c2cnn3c(N)c(Br)c([C@@H]4CCCNC4)nc23)cn1 + N=C(N)NC(=N)NCCc1ccccc1 [Phenformin] (partner 250 µM)
# Outline: as §1
# [4] = compound: Cn1cc(-c2cnn3c(N)c(Br)c([C@@H]4CCCNC4)nc23)cn1 + NC(=O)Nc1cc(-c2cccc(F)c2)sc1C(=O)N[C@H]1CCCNC1 [AZD7762] (partner 0.2 µM)
# Outline: as §1
cell line,measurement,setting,value
NCI-H1944,relative viability,[1]; first compound 0.05 µM,0.341
same,relative viability,[1]; first compound 0.1581 µM,0.358
same,relative viability,[1]; first compound 0.5 µM,0.346
same,relative viability,[1]; first compound 1.581 µM,0.32
same,relative viability,[1]; first compound 5 µM,0.302
same,relative viability,[2]; first compound 0.05 µM,0.808
same,relative viability,[2]; first compound 0.1581 µM,0.797
same,relative viability,[2]; first compound 0.5 µM,0.825
same,relative viability,[2]; first compound 1.581 µM,0.717
same,relative viability,[2]; first compound 5 µM,0.626
same,relative viability,[3]; first compound 0.05 µM,0.212
same,relative viability,[3]; first compound 0.1581 µM,0.199
same,relative viability,[3]; first compound 0.5 µM,0.198
same,relative viability,[3]; first compound 1.581 µM,0.194
same,relative viability,[3]; first compound 5 µM,0.186
same,relative viability,[4]; first compound 0.05 µM,0.608
same,relative viability,[4]; first compound 0.1581 µM,0.491
same,relative viability,[4]; first compound 0.5 µM,0.466
same,relative viability,[4]; first compound 1.581 µM,0.423
same,relative viability,[4]; first compound 5 µM,0.341
NCI-H1975,relative viability,[1]; first compound 0.05 µM,0.308
same,relative viability,[1]; first compound 0.1581 µM,0.264
same,relative viability,[1]; first compound 0.5 µM,0.308
same,relative viability,[1]; first compound 1.581 µM,0.222
same,relative viability,[1]; first compound 5 µM,0.248
same,relative viability,[2]; first compound 0.05 µM,0.685
same,relative viability,[2]; first compound 0.1581 µM,0.681
same,relative viability,[2]; first compound 0.5 µM,0.655
same,relative viability,[2]; first compound 1.581 µM,0.404
same,relative viability,[2]; first compound 5 µM,0.525
same,relative viability,[3]; first compound 0.05 µM,0.44
same,relative viability,[3]; first compound 0.1581 µM,0.435
same,relative viability,[3]; first compound 0.5 µM,0.443
same,relative viability,[3]; first compound 1.581 µM,0.338
same,relative viability,[3]; first compound 5 µM,0.356
same,relative viability,[4]; first compound 0.05 µM,0.752
same,relative viability,[4]; first compound 0.1581 µM,0.718
same,relative viability,[4]; first compound 0.5 µM,0.72
same,relative viability,[4]; first compound 1.581 µM,0.664
same,relative viability,[4]; first compound 5 µM,0.571
NCI-H1993,relative viability,[1]; first compound 0.05 µM,0.816
same,relative viability,[1]; first compound 0.1581 µM,0.789
same,relative viability,[1]; first compound 1.581 µM,0.819
same,relative viability,[1]; first compound 5 µM,0.686
same,relative viability,[2]; first compound 0.05 µM,0.632
same,relative viability,[2]; first compound 0.1581 µM,0.7
same,relative viability,[2]; first compound 1.581 µM,0.66
same,relative viability,[2]; first compound 5 µM,0.708
same,relative viability,[3]; first compound 0.05 µM,0.522
same,relative viability,[3]; first compound 0.1581 µM,0.536
same,relative viability,[3]; first compound 0.5 µM,0.412
same,relative viability,[3]; first compound 1.581 µM,0.481
same,relative viability,[3]; first compound 5 µM,0.513
same,relative viability,[4]; first compound 0.05 µM,0.642
same,relative viability,[4]; first compound 0.1581 µM,0.84
same,relative viability,[4]; first compound 0.5 µM,0.616
same,relative viability,[4]; first compound 1.581 µM,0.733
same,relative viability,[4]; first compound 5 µM,0.664
NCI-H2085,relative viability,[1]; first compound 0.05 µM,0.508
same,relative viability,[1]; first compound 0.1581 µM,0.441
same,relative viability,[1]; first compound 0.5 µM,0.57
same,relative viability,[1]; first compound 1.581 µM,0.403
same,relative viability,[1]; first compound 5 µM,0.469
same,relative viability,[2]; first compound 0.05 µM,1.01
same,relative viability,[2]; first compound 0.1581 µM,1.04
same,relative viability,[2]; first compound 0.5 µM,0.955
same,relative viability,[2]; first compound 1.581 µM,0.868
same,relative viability,[2]; first compound 5 µM,0.769
same,relative viability,[3]; first compound 0.05 µM,0.692
same,relative viability,[3]; first compound 0.1581 µM,0.746
same,relative viability,[3]; first compound 0.5 µM,0.737
same,relative viability,[3]; first compound 1.581 µM,0.626
same,relative viability,[3]; first compound 5 µM,0.516
same,relative viability,[4]; first compound 0.05 µM,0.964
same,relative viability,[4]; first compound 0.1581 µM,1.12
same,relative viability,[4]; first compound 0.5 µM,1.01
same,relative viability,[4]; first compound 1.581 µM,0.765
same,relative viability,[4]; first compound 5 µM,0.719
NCI-H2087,relative viability,[1]; first compound 0.05 µM,0.821
same,relative viability,[1]; first compound 0.1581 µM,1
same,relative viability,[1]; first compound 0.5 µM,0.95
same,relative viability,[1]; first compound 1.581 µM,0.852
same,relative viability,[1]; first compound 5 µM,0.803
same,relative viability,[2]; first compound 0.05 µM,1.29
same,relative viability,[2]; first compound 0.1581 µM,1.17
same,relative viability,[2]; first compound 0.5 µM,1.21
same,relative viability,[2]; first compound 1.581 µM,0.98
same,relative viability,[2]; first compound 5 µM,0.938
same,relative viability,[3]; first compound 0.05 µM,0.47
same,relative viability,[3]; first compound 0.1581 µM,0.479
same,relative viability,[3]; first compound 0.5 µM,0.483
same,relative viability,[3]; first compound 1.581 µM,0.485
same,relative viability,[3]; first compound 5 µM,0.507
same,relative viability,[4]; first compound 0.05 µM,1.32
same,relative viability,[4]; first compound 0.1581 µM,1.38
same,relative viability,[4]; first compound 0.5 µM,1.41
same,relative viability,[4]; first compound 1.581 µM,1.22
same,relative viability,[4]; first compound 5 µM,1.42
NCI-H2126,relative viability,[1]; first compound 0.05 µM,0.462
same,relative viability,[1]; first compound 0.1581 µM,0.519
same,relative viability,[1]; first compound 0.5 µM,0.512
same,relative viability,[1]; first compound 1.581 µM,0.52
same,relative viability,[1]; first compound 5 µM,0.524
same,relative viability,[2]; first compound 0.05 µM,0.824
same,relative viability,[2]; first compound 0.1581 µM,0.788
same,relative viability,[2]; first compound 0.5 µM,0.768
same,relative viability,[2]; first compound 1.581 µM,0.729
same,relative viability,[2]; first compound 5 µM,0.757
same,relative viability,[3]; first compound 0.05 µM,0.492
same,relative viability,[3]; first compound 0.1581 µM,0.543
same,relative viability,[3]; first compound 0.5 µM,0.51
same,relative viability,[3]; first compound 1.581 µM,0.491
same,relative viability,[3]; first compound 5 µM,0.47
same,relative viability,[4]; first compound 0.05 µM,1.05
same,relative viability,[4]; first compound 0.1581 µM,1.03
same,relative viability,[4]; first compound 0.5 µM,0.997
same,relative viability,[4]; first compound 1.581 µM,0.993
same,relative viability,[4]; first compound 5 µM,0.986
NCI-H2170,relative viability,[1]; first compound 0.05 µM,0.281
same,relative viability,[1]; first compound 0.1581 µM,0.299
same,relative viability,[1]; first compound 0.5 µM,0.262
same,relative viability,[1]; first compound 1.581 µM,0.274
same,relative viability,[1]; first compound 5 µM,0.295
same,relative viability,[2]; first compound 0.05 µM,0.865
same,relative viability,[2]; first compound 0.1581 µM,0.764
same,relative viability,[2]; first compound 0.5 µM,0.654
same,relative viability,[2]; first compound 1.581 µM,0.705
same,relative viability,[2]; first compound 5 µM,0.88
same,relative viability,[3]; first compound 0.05 µM,0.415
same,relative viability,[3]; first compound 0.1581 µM,0.441
same,relative viability,[3]; first compound 0.5 µM,0.429
same,relative viability,[3]; first compound 1.581 µM,0.429
same,relative viability,[3]; first compound 5 µM,0.429
same,relative viability,[4]; first compound 0.05 µM,0.923
same,relative viability,[4]; first compound 0.1581 µM,0.919
same,relative viability,[4]; first compound 0.5 µM,0.753
same,relative viability,[4]; first compound 1.581 µM,0.822
same,relative viability,[4]; first compound 5 µM,0.973
NCI-H2347,relative viability,[1]; first compound 0.05 µM,0.77
same,relative viability,[1]; first compound 0.1581 µM,0.63
same,relative viability,[1]; first compound 0.5 µM,0.759
same,relative viability,[1]; first compound 1.581 µM,0.264
same,relative viability,[1]; first compound 5 µM,0.57
same,relative viability,[2]; first compound 0.05 µM,0.974
same,relative viability,[2]; first compound 0.1581 µM,1.19
same,relative viability,[2]; first compound 0.5 µM,0.959
same,relative viability,[2]; first compound 1.581 µM,0.957
same,relative viability,[2]; first compound 5 µM,0.812
same,relative viability,[3]; first compound 0.05 µM,0.338
same,relative viability,[3]; first compound 0.1581 µM,0.396
same,relative viability,[3]; first compound 0.5 µM,0.406
same,relative viability,[3]; first compound 1.581 µM,0.449
same,relative viability,[3]; first compound 5 µM,0.337
same,relative viability,[4]; first compound 0.05 µM,0.77
same,relative viability,[4]; first compound 0.1581 µM,0.635
same,relative viability,[4]; first compound 0.5 µM,0.76
same,relative viability,[4]; first compound 1.581 µM,0.65
same,relative viability,[4]; first compound 5 µM,0.532
NCI-H2405,relative viability,[1]; first compound 0.05 µM,0.466
same,relative viability,[1]; first compound 0.1581 µM,0.37
same,relative viability,[1]; first compound 0.5 µM,0.396
same,relative viability,[1]; first compound 1.581 µM,0.327
same,relative viability,[1]; first compound 5 µM,0.314
same,relative viability,[2]; first compound 0.05 µM,0.816
same,relative viability,[2]; first compound 0.1581 µM,0.753
same,relative viability,[2]; first compound 0.5 µM,0.814
same,relative viability,[2]; first compound 1.581 µM,0.777
same,relative viability,[2]; first compound 5 µM,0.542
same,relative viability,[3]; first compound 0.05 µM,0.384
same,relative viability,[3]; first compound 0.1581 µM,0.522
same,relative viability,[3]; first compound 0.5 µM,0.398
same,relative viability,[3]; first compound 1.581 µM,0.363
same,relative viability,[3]; first compound 5 µM,0.318
same,relative viability,[4]; first compound 0.05 µM,0.682
same,relative viability,[4]; first compound 0.1581 µM,0.75
same,relative viability,[4]; first compound 0.5 µM,0.659
same,relative viability,[4]; first compound 1.581 µM,0.476
same,relative viability,[4]; first compound 5 µM,0.501
